The numbers were not newly measured in patent US20170042798A1, “USE OF BIDENS EXTRACT TO REDUCE SIGNS OF SKIN AGING” (KIMBERLY-CLARK WORLDWIDE ,INC., priority 2014, published 2017), which cites them from elsewhere.

The subject of the data set is 3T3-L1 cells. The following applies: literature, Nutr. Res. 32(6): 439-447.

On to Fucoidan, for which the adipogenesis entry was “inhibit adipogenesis”.
